Earlier results in patent US8026262B2, “Chemical compounds” (GlaxoSmithKline LLC, priority 2006, dated 2011).

Key:
[1] = tested on: ovariectomized (OVX) rats
[2] = tested on: ORX rats

Row | Molecule | periosteal mineral apposition rate of the femur [1] | BMD of femoral cortical bone ([1]; 2 month period) | biomechanical strength of femoral cortical bone ([1]; 2 month period) | bone mineral density (BMD) of femur ([2]; 4 weeks, as markedly as DHT) | levator ani muscle weight ([2]; 4 weeks, as markedly as DHT) | prostate weight ([2]; versus eugonadal rats, at any doses tested)
1 | CN(C)[C@H]1C[C@@H](C(C)(C)CO)Nc2ccc([N+](=O)[O-])cc21 [Example S-40503] | increase | significantly increased | significantly increased | increased | increased | not elevated
2 | estrogen | – | – | did not | – | – | –
